Assay results reported in US20120016010A1, “RNA Interference Mediated Inhibition of BTB and CNC Homology 1, Basic Leucine Zipper Transcription Factor 1 (BACH1) Gene Expression Using Short Interfering Nucleic Acid (siNA)” (Merck Sharp & Dohme Corp, priority 2009, published 2012).

target: T1, TLR8 (Homo sapiens, UniProt Q9NR97); type: cell-based
T1 construct: expressed in transfected cells
T1 sequence (Q9NR97 27-1041): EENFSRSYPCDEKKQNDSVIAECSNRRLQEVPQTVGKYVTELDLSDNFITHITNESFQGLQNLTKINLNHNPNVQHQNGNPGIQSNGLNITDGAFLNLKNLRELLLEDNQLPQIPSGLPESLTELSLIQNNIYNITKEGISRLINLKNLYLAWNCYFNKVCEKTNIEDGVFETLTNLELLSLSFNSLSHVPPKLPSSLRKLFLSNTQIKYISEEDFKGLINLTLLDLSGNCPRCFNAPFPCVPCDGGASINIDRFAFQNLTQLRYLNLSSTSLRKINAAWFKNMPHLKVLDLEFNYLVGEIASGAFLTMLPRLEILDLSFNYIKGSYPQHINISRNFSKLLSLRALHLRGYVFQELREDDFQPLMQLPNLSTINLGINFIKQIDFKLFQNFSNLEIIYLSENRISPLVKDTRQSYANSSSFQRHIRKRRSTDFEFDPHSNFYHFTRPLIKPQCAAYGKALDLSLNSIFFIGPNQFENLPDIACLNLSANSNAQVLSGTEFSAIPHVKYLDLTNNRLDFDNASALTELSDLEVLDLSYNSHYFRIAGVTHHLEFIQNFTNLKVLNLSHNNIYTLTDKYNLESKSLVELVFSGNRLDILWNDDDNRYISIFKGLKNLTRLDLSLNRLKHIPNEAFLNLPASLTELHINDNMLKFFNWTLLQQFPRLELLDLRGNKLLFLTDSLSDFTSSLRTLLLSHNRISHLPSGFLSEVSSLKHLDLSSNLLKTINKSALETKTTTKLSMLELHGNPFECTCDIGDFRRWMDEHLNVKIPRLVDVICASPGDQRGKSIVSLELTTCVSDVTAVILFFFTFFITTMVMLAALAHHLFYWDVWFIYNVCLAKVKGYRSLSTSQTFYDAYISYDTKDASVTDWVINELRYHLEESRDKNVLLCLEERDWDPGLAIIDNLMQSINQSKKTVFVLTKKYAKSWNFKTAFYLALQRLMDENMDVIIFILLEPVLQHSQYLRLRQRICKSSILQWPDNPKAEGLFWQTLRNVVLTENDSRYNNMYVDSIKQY
Experimental: Human U205-TLR7 and Human U205-TLR8 cells were grown at 37 degrees in the presence of 5% CO2 and were cultured in Dulbeco's modified Eagle's Medium (DMEM), 1% non essential amino acids, supplemented with fetal bovine serum at 10% and 100 ug/ml streptomycin and 100 u/ml penicillin. Stable expression of TLR7 and TLR8 was maintained by the addition of 300 ug/ml […].
TLR7 and TLR8 expressing U2OS osteosarcoma cells were seeded in 96-well plate format at a concentration of 2×10^4 cells/well 24 hours prior to transfection. Cells were transfected with the siNAs using DharmaFECT1 lipid transfection reagent using Resiquimod (R848) and the LyoVec-complexed, GU-rich oligonucleotide ssRNA40 respectively as controls (100 μl/well). (DharmaFECT1 was used as the delivery agent for the siNAs as it combines low immunostimulatory effects with high delivery efficiency.) The treatment media were replaced after 6 hours with antibiotic containing DMEM. Cells were harvested 24 hours following transfection. […] An agonist concentration range of 4-10 μg/ml was established since it caused optimal levels of IL8 mRNA expression for the assay.
TLR7 and TLR8 mediated immunostimulation was measured by the increase in IL8 mRNA levels when the siNAs were formulated with DharmaFect1 (Gibco BRL) and delivered to U2OS cells that were engineered to stably express TLR7 or TLR8. The cells were treated with the TLR7 and TLR8 agonists Resiquimod (R848) and ssRNA40/LyoVec respectively to act as positive controls for IL8 mRNA induction. IL8 mRNA levels were used as a biomarker of TLR7 and TLR8 mediated immunostimulation.

Which “Immunostimulation TLR8 mediated in Human U2OS-TLR8 cells IL8 mRNA increase n = 4 individual expts” value does the source give for “29947-DC (sense GGAAUCCUGCUUUCAGUUUTT; antisense AAACUGAAAGCAGGAUUCCUU; inverted abasic caps (B), 2'-modified nucleotides, further chemistry not given here)” here?
Its value is “No significant effect up to 100 nM”.

And the “TLR8 mediated immunostimulatory activity (IL8 mRNA induction)” value?
The value was “no TLR8 mediated immunostimulatory activity”.

Which “Immunostimulation TLR8 mediated in Human U2OS-TLR8 cells IL8 mRNA increase n = 4 individual expts” value does the source give for “29956-DC (sense GUCUGAGUGUCCGUGGUUATT; antisense UAACCACGGACACUCAGACUU; inverted abasic caps (B), 2'-modified nucleotides, further chemistry not given here)” here?
The value was “No significant effect up to 100 nM”.

“29957-DC (sense GCAGUUACUUCCACUCAAGTT; antisense CUUGAGUGGAAGUAACUGCUU; inverted abasic end caps, TT overhangs, modified nucleotides, further chemistry not given here)” was tested. Which “Immunostimulation TLR8 mediated in Human U2OS-TLR8 cells IL8 mRNA increase n = 4 individual expts” value did it give?
The value was “Upregulation up to 100 nM”.

Which results are given for “29961-DC (sense CUACACUGCUAAACUGAUUTT; antisense AAUCAGUUUAGCAGUGUAGUU; inverted abasic end caps, TT overhangs, modified nucleotides, further chemistry not given here)”?
Immunostimulation TLR8 mediated in Human U2OS-TLR8 cells IL8 mRNA increase n = 4 individual expts: No significant effect up to 100 nM; TLR8 mediated immunostimulatory activity (IL8 mRNA induction): no TLR8 mediated immunostimulatory activity

Which results are given for “29964-DC (sense GAUUUGCAGGUGAUGUUAATT; antisense UUAACAUCACCUGCAAAUCUU; inverted abasic end caps, TT overhangs, modified nucleotides, further chemistry not given here)”?
Immunostimulation TLR8 mediated in Human U2OS-TLR8 cells IL8 mRNA increase n = 4 individual expts: No significant effect up to 100 nM; TLR8 mediated immunostimulatory activity (IL8 mRNA induction): no TLR8 mediated immunostimulatory activity

What does the source list for “29984-DC (sense GUUAAAGGAUUUGAACCUUTT; antisense AAGGUUCAAAUCCUUUAACUU; inverted abasic end caps, TT overhangs, modified nucleotides, further chemistry not given here)”?
Immunostimulation TLR8 mediated in Human U2OS-TLR8 cells IL8 mRNA increase n = 4 individual expts: No significant effect up to 100 nM; TLR8 mediated immunostimulatory activity (IL8 mRNA induction): no TLR8 mediated immunostimulatory activity

For “29988-DC (sense AUUUGAACCUUUAAUUCAGTT; antisense CUGAAUUAAAGGUUCAAAUUU; inverted abasic end caps, TT overhangs, modified nucleotides, further chemistry not given here)”, which “Immunostimulation TLR8 mediated in Human U2OS-TLR8 cells IL8 mRNA increase n = 4 individual expts” value is on record?
The value was “No significant effect up to 100 nM”.

What about the “TLR8 mediated immunostimulatory activity (IL8 mRNA induction)” value of the same substance?
Its value is “no TLR8 mediated immunostimulatory activity”.
